Experiments:
Assay type in all cases: binding
[1] = target: T1, MadR (mycolic acid desaturase regulator, Rv0472c) (Mycobacterium tuberculosis, UniProt P9WMD9); assay: intrinsic tryptophan fluorescence quenching
[2] = target: T1, MadR (mycolic acid desaturase regulator, Rv0472c); assay: intrinsic tryptophan fluorescence quenching; EMSA shows release from desA1/desA2 promoters
[3] = target: T1, MadR (mycolic acid desaturase regulator, Rv0472c); assay: intrinsic tryptophan fluorescence quenching (binds, but does not release promoter DNA)

T1 sequence (P9WMD9 whole entry, looked up): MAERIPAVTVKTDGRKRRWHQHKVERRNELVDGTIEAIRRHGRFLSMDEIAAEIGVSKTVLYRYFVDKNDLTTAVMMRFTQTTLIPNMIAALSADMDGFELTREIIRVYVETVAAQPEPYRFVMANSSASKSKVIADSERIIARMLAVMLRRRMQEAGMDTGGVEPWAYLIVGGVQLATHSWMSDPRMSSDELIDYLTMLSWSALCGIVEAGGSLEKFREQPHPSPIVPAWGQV

Structure (SMILES)	Kd [2] [µM]	Kd [3] [µM]	further results
CCCCCCCCCCCCCC(=O)SCCNC(=O)CCNC(=O)[C@H](O)C(C)(C)COP(=O)(O)OP(=O)(O)OC[C@H]1O[C@@H](n2cnc3c(N)ncnc32)[C@H](O)[C@@H]1OP(=O)(O)O [C14:0-CoA, myristoyl-CoA]	–	–	Kd [1]: 12.4 µM
CCCCCCCCCCCCCCCC(=O)SCCNC(=O)CCNC(=O)[C@H](O)C(C)(C)COP(=O)(O)OP(=O)(O)OC[C@H]1O[C@@H](n2cnc3c(N)ncnc32)[C@H](O)[C@@H]1OP(=O)(O)O [C16:0-CoA, palmitoyl-CoA]	10.7	–	–
CCCCCCCCCCCCCCCCCC(=O)SCCNC(=O)CCNC(=O)[C@H](O)C(C)(C)COP(=O)(O)OP(=O)(O)OC[C@H]1O[C@@H](n2cnc3c(N)ncnc32)[C@H](O)[C@@H]1OP(=O)(O)O [C18:0-CoA, stearoyl-CoA]	7.73	–	–
CCCCCCCC/C=C\CCCCCCCC(=O)SCCNC(=O)CCNC(=O)[C@H](O)C(C)(C)COP(=O)(O)OP(=O)(O)OC[C@H]1O[C@@H](n2cnc3c(N)ncnc32)[C@H](O)[C@@H]1OP(=O)(O)O [C18:1-CoA, oleoyl-CoA]	–	9.55	–
CCCCC/C=C\C/C=C\CCCCCCCC(=O)SCCNC(=O)CCNC(=O)[C@H](O)C(C)(C)COP(=O)(O)OP(=O)(O)OC[C@H]1O[C@@H](n2cnc3c(N)ncnc32)[C@H](O)[C@@H]1OP(=O)(O)O [C18:2-CoA, linoleoyl-CoA]	–	9.88	–
CCCCCCCCCCCCCCCCCCCCCCCC(=O)SCCNC(=O)CCNC(=O)[C@H](O)C(C)(C)COP(=O)(O)OP(=O)(O)OC[C@H]1O[C@@H](n2cnc3c(N)ncnc32)[C@H](O)[C@@H]1OP(=O)(O)O [C24:0-CoA, lignoceroyl-CoA]	18.1	–	–
